Test results reported in US9174940B2, “TSH receptor antagonizing tetrahydroquinoline compounds” (Merck Sharp & Dohme B.V., priority 2007, dated 2015).

Assays:
human TSH receptor [1] = target: T1, human TSH receptor (Homo sapiens (Human), UniProt P16473); assay: Antagonist activity against TSH at the human TSH receptor expressed in CHO cells (CRE-luciferase reporter); conditions: together with 18 nM bovine TSH
Protocol: Antagonist activity of the compounds against TSH at the human TSH receptor was tested in Chinese Hamster Ovary (CHO) cells stably transfected with a plasmid encoding the human TSH receptor and a second plasmid with a cAMP responsive element (CRE)/promotor directing the expression of a firefly luciferase reporter gene. Binding of bovine TSH to the Gs-coupled TSH receptor will result in an increase of cAMP, which in turn will induce an increased transactivation of the luciferase reporter. Luciferase activity was quantified using a luminescence counter.

[2] = test system: constitutively active human TSHR mutants (Thr632Ile, Ala623Val, Ile568Thr, Asp619Gly and Asp633Glu); assay: Antagonist activity at constitutively active human TSH receptors expressed in CHO cells (cAMP Alphascreen); type: cell-based; conditions: 10^−6M compound, 10 μM rolipram, transiently transfected CHO cells
Protocol: Antagonist activity of two compounds was tested in Chinese Hamster Ovary (CHO) cells transiently transfected with a plasmid encoding one of the 5 most prevalent, constitutively active human TSHR mutants (Thr632Ile, Ala623Val, Ile568Thr, Asp619Gly and Asp633Glu) (van Sande et al. (1995) J. Clin. Endocrinol. Metabol. 80, 2577-2585), which have been identified in autonomously functioning thyroid nodules causing hyperthyroidism. The cells were incubated with 10^−6M of either the compound of example 35 or example 1 in the presence of 10 μM rolipram. Activity of the TSH receptor mutants was quantified using a Packard cAMP Alphascreen assay.

human TSH receptor [3] = target: T1, human TSH receptor; assay: Antagonist activity against bovine TSH at the human TSH receptor in CHO cells under the TSI assay conditions (CRE-luciferase reporter, rolipram); type: cell-based; conditions: stimulated with 18 nM bovine TSH; 10 μM rolipram; CHO cells cultured 16 h without serum
human TSH receptor [4] = target: T1, human TSH receptor; assay: Antagonist activity against human TSI at the human TSH receptor expressed in CHO cells (CRE-luciferase reporter, rolipram); type: cell-based; conditions: stimulated with 3.16 mg/ml human TSI; 10 μM rolipram; CHO cells cultured 16 h without serum

T1 sequence (P16473 21-764): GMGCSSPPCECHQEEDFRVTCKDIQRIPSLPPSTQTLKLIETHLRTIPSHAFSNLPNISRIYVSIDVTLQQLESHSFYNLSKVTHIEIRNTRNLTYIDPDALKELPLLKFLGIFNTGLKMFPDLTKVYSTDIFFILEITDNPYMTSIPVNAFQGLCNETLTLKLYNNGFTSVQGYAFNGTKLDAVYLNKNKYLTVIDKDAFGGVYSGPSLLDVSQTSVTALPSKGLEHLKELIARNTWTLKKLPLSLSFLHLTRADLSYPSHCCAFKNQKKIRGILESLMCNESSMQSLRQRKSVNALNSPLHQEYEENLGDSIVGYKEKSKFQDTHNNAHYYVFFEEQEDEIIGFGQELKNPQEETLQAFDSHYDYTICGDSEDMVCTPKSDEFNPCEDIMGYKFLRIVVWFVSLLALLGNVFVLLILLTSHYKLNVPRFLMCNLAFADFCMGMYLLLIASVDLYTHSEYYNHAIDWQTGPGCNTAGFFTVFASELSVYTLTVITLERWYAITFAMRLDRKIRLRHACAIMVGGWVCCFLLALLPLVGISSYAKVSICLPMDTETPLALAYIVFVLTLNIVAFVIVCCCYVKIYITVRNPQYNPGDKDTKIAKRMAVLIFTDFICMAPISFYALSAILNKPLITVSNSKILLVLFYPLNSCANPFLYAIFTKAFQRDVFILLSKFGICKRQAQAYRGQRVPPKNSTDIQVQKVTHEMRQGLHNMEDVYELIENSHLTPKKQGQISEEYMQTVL

IC50 (human TSH receptor [1]) [nM] | Compound | other results
< 100 | (1-Acetyl-4-methyl-4-phenyl-1,2,3,4,4a,8a-hexahydro-quinolin-6-yl)-carbamic acid cyclopentyl ester [Example 32] | –
< 100 | CCCCOC(=O)Nc1ccc2c(c1)C(C)(c1ccccc1)CC(C)(C)N2C(C)=O (stereo not drawn) [Example 7, (1-Acetyl-2,2,4-trimethyl-4-phenyl-1,2,3,4-tetrahydro-quinolin-6-yl)-carbamic acid butyl ester] | –
< 100 | CCCCCC(=O)Nc1ccc2c(c1)C(C)(c1ccccc1)CC(C)(C)N2C(C)=O (stereo not drawn) [Example 1, Hexanoic acid (1-acetyl-2,2,4-trimethyl-4-phenyl-1,2,3,4-tetrahydro-quinolin-6-yl)-amide] | inhibition of constitutive activity of all 5 receptor mutants [2]: > 80%; IC50 (human TSH receptor [3]): 368 nM; IC50 (human TSH receptor [4]): 88 nM
< 100 | CC(=O)N1c2ccc(NC(=O)c3ccccn3)cc2C(C)(c2ccccc2)CC1(C)C (stereo not drawn) [Example 4, Pyridine-2-carboxylic acid (1-acetyl-2,2,4-trimethyl-4-phenyl-1,2,3,4-tetrahydro-quinolin-6-yl)-amide] | –
< 100 | CC(=O)N1c2ccc(NC(=O)CCc3cccc(Cl)c3)cc2C(C)(c2ccccc2)CC1(C)C (stereo not drawn) [Example 26, N-(1-Acetyl-2,2,4-trimethyl-4-phenyl-1,2,3,4-tetrahydro-quinolin-6-yl)-3-(3-chloro-phenyl)-propionamide] | –
< 100 | CC(=O)N1c2ccc(NC(=O)OCCOc3ccccc3)cc2C(C)(c2ccccc2)CC1(C)C (stereo not drawn) [Example 6, (1-Acetyl-2,2,4-trimethyl-4-phenyl-1,2,3,4-tetrahydro-quinolin-6-yl)-carbamic acid 2-phenoxy-ethyl ester] | –

The next lines start with the compound.

Compound | IC50 (human TSH receptor [1]) [nM] | other results
CC(=O)N1CCC(C)(c2ccccc2)c2cc(NC(=O)c3ccc(Br)s3)ccc21 (stereo not drawn) [Example 35, 5-Bromo-thiophene-2-carboxylic acid (1-acetyl-4-methyl-4-phenyl-1,2,3,4-tetrahydro-quinolin-6-yl)-amide] | – | inhibition of constitutive activity of all 5 receptor mutants [2]: > 80%
CC(=O)N1CCC(C)(c2ccccc2)c2cc(NC(=O)OC3CCCC3)ccc21 (single isomer, unassigned; (+)) [Example 39] | – | IC50 (human TSH receptor [3]): 48 nM; IC50 (human TSH receptor [4]): 12 nM
CC(=O)N1CCC(C)(c2ccccc2)c2cc(NC(=O)OCc3ccc(F)c(Cl)c3)ccc21 (stereo not drawn) [Example 34, (1-Acetyl-4-methyl-4-phenyl-1,2,3,4-tetrahydro-quinolin-6-yl)-carbamic acid 3-chloro-4-fluoro-benzyl ester] | < 100 | –
CC(=O)N1CCC(C)(c2ccccc2)c2cc(NC(=O)OCCC(C)C)ccc21 (stereo not drawn) [Example 27, (1-Acetyl-4-methyl-4-phenyl-1,2,3,4-tetrahydro-quinolin-6-yl)-carbamic acid 3-methyl-butyl ester] | < 100 | –
CC(=O)N1CCC(C)(c2ccccc2)c2cc(NC(=O)OCC3CCC3)ccc21 (stereo not drawn) [Example 29, (1-Acetyl-4-methyl-4-phenyl-1,2,3,4-tetrahydro-quinolin-6-yl)-carbamic acid cyclobutylmethyl ester] | < 100 | –
CC(=O)N1CCC(C)(c2ccccc2)c2cc(NC(=O)OCC3(C)CC3)ccc21 (stereo not drawn) [Example 28, (1-Acetyl-4-methyl-4-phenyl-1,2,3,4-tetrahydro-quinolin-6-yl)-carbamic acid 1-methyl-cyclopropylmethyl ester] | < 100 | –
CC(=O)N1CCC(C)(c2ccccc2)c2cc(NC(=O)OCc3ccc(F)c(Cl)c3)ccc21 (single isomer, unassigned; (+)) [Example 40, (+)-(1-Acetyl-4-methyl-4-phenyl-1,2,3,4-tetrahydro-quinolin-6-yl)-carbamic acid 3-chloro-4-fluoro-benzyl ester] | – | IC50 (human TSH receptor [3]): 192 nM; IC50 (human TSH receptor [4]): 47 nM
